According to US20200199127A1, “(HETERO)ARYLALKYLAMINO-PYRAZOLOPYRIDAZINE DERIVATIVES HAVING MULTIMODAL ACTIVITY AGAINST PAIN” (priority 2017, published 2020):

Tests used:
[1] = target: Human norepinephrine transporter (NET) (Homo sapiens, UniProt P23975); assay: Binding assay to human norepinephrine transporter (NET), [3H]-Nisoxetin; details: human NET enriched membranes, 5 nM [3H]-Nisoxetin; Ki as class symbol
Procedure: Binding Assay to Human Norepinephrine Transporter (NET).
Human norepinephrine transporter (NET) enriched membranes (5 μg) were incubated with 5 nM of radiolabeled [3H]-Nisoxetin in assay buffer containing 50 mM Tris-HCl, 120 mM NaCl, 5 mM KCl, pH 7.4.
NSB (non specific binding) was measured by adding 10 μM of desipramine. The binding of the test compound was measured at five different concentrations.. After 60 min incubation at 4° C., binding reaction was terminated by filtering through Multiscreen GF/C (Millipore) presoaked in 0.5% polyethyleneimine in Vacuum Manifold Station, followed by 3 washes with ice-cold filtration buffer containing 50 mM Tris-HCl, 0.9% NaCl, pH 7.4.
Filter plates were dried at 60° C. for 1 hour and 30 μl of scintillation cocktail were added to each well before radioactivity reading.

[2] = target: Human α2δ-1 subunit of Cav2.2 calcium channel (Homo sapiens, UniProt P54289); assay: Human α2δ-1 subunit of Cav2.2 calcium channel assay, [3H]-Gabapentin binding; details: human α2δ-1 enriched membranes, 15 nM [3H]-Gabapentin; Ki as class symbol
Procedure: Human α2δ-1 Subunit of Cav2.2 Calcium Channel Assay
Human α2δ-1 enriched membranes (2.5 μg) were incubated with 15 nM of radiolabeled [3H]-Gabapentin in assay buffer containing Hepes-KOH 10 mM, pH 7.4. NSB (non specific binding) was measured by adding 10 μM pregabalin. The binding of the test compound was measured at five different concentrations. After 60 min incubation at 27° C., binding reaction was terminated by filtering through Multiscreen GF/C (Millipore) presoaked in 0.5% polyethyleneimine in Vacuum Manifold Station, followed by 3 washes with ice-cold filtration buffer containing 50 mM Tris-HCl, pH 7.4. Filter plates were dried at 60° C. for 1 hour and 30 μl of scintillation cocktail were added to each well before radioactivity reading. Readings were performed in a Trilux 1450 Microbeta radioactive counter (Perkin Elmer).

Sequence of Human norepinephrine transporter (NET) (P23975 whole entry): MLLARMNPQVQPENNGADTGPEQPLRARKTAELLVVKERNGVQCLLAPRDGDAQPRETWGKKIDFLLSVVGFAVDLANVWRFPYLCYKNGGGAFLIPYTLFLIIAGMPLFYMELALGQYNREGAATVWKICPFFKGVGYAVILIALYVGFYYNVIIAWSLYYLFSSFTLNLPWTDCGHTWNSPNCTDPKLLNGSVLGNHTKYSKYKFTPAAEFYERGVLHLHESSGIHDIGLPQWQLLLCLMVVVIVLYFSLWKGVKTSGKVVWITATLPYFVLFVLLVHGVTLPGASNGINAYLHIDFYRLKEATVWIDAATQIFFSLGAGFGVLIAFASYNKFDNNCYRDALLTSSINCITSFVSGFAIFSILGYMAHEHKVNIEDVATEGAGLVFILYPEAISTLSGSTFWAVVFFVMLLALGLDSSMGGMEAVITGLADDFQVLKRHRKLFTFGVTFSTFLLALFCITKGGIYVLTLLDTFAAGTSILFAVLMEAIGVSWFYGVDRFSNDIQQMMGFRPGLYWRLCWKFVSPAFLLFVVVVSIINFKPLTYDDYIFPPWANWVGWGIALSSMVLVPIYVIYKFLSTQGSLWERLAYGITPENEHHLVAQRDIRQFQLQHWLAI
Sequence of Human α2δ-1 subunit of Cav2.2 calcium channel (P54289 25-1103): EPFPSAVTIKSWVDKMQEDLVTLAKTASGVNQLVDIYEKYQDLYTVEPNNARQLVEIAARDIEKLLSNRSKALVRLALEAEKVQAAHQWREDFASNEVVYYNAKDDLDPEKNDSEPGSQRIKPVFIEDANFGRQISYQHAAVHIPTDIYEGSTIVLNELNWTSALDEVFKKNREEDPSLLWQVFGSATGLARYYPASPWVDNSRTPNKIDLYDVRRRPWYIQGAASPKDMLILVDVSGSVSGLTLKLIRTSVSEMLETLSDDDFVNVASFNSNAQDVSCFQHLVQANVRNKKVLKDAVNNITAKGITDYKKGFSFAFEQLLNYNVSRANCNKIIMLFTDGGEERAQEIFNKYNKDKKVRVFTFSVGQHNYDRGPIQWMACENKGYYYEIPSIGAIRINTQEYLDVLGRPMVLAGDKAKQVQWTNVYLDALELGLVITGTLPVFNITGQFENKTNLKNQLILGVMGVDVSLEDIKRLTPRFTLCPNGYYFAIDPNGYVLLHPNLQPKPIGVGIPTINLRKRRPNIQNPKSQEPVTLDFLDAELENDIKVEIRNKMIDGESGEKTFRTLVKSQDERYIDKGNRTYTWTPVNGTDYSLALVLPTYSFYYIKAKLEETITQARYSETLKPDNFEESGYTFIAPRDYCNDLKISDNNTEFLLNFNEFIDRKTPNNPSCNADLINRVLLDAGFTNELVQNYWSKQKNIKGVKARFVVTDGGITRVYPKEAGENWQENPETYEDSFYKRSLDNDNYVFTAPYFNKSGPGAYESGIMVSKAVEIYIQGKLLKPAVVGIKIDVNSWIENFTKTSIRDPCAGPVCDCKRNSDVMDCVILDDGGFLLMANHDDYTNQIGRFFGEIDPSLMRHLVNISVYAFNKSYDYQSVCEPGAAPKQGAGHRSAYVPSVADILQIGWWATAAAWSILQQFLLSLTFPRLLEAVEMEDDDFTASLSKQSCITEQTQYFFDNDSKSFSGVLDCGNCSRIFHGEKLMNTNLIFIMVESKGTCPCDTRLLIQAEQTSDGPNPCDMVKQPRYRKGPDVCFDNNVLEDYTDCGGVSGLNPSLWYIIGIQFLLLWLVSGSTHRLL

SMILES: CCOc1ccc(-n2nc3c(NCCc4ccccn4)nnc(C)c3c2C)c(F)c1 [Example 15, 2-(4-ethoxy-2-fluorophenyl)-3,4-dimethyl-N-(2-(pyridin-2-yl)ethyl)-2H-pyrazolo[3,4-d]pyridazin-7-amine]
- Ki [1]: > 1 µM
- Ki [2]: 0.1 to 0.5 µM

SMILES: CCOc1ccc(-n2nc3c(N(CCO)Cc4ccccn4)nnc(C)c3c2C)c(F)c1 [Example 56, 2-((2-(4-ethoxy-2-fluorophenyl)-3,4-dimethyl-2H-pyrazolo[3,4-d]pyridazin-7-yl)(pyridin-2-ylmethyl)amino)ethanol]
- Ki [1]: 0.5 to 1 µM
- Ki [2]: 0.5 to 5 µM

SMILES: CCOc1ccc(-n2nc3c(N(C)Cc4ccon4)nnc(C)c3c2C)c(F)c1 [Example 27, 2-(4-ethoxy-2-fluorophenyl)-N-(isoxazol-3-ylmethyl)-N,3,4-trimethyl-2H-pyrazolo[3,4-d]pyridazin-7-amine]
- Ki [1]: > 1 µM
- Ki [2]: 0.5 to 5 µM

SMILES: CCOc1ccc(-n2nc3c(N(C)Cc4ccccn4)nnc(C)c3c2C)c(F)c1 [Example 9, 2-(4-ethoxy-2-fluorophenyl)-N,3,4-trimethyl-N-(pyridin-2-ylmethyl)-2H-pyrazolo[3,4-d]pyridazin-7-amine]
- Ki [1]: 0.5 to 1 µM
- Ki [2]: 0.1 to 0.5 µM

SMILES: CCOc1ccc(-n2nc3c(N(C)Cc4cccc(C)n4)nnc(C)c3c2C)c(F)c1 [Example 1, 2-(4-Ethoxy-2-fluorophenyl)-N,3,4-trimethyl-N-((6-methylpyridin-2-yl)methyl)-2H-pyrazolo[3,4-d]pyridazin-7-amine]
- Ki [1]: 0.5 to 1 µM
- Ki [2]: 0.1 to 0.5 µM

SMILES: COc1ccc(-n2nc3c(N(C)Cc4ccccn4)nnc(C)c3c2C)cc1 [Example 48, 2-(4-methoxyphenyl)-N,3,4-trimethyl-N-(pyridin-2-ylmethyl)-2H-pyrazolo[3,4-d]pyridazin-7-amine]
- Ki [1]: > 1 µM
- Ki [2]: 0.5 to 5 µM

SMILES: CCOc1ccc(-n2nc3c(N(C)Cc4ncc[nH]4)nnc(C)c3c2C)c(F)c1 [Example 25, N-((1H-imidazol-2-yl)methyl)-2-(4-ethoxy-2-fluorophenyl)-N,3,4-trimethyl-2H-pyrazolo[3,4-d]pyridazin-7-amine]
- Ki [1]: > 1 µM
- Ki [2]: 0.5 to 5 µM

SMILES: CCOc1ccc(-n2nc3c(NCc4ccccc4)nnc(C)c3c2C)c(F)c1 [Example 13, N-benzyl-2-(4-ethoxy-2-fluorophenyl)-3,4-dimethyl-2H-pyrazolo[3,4-d]pyridazin-7-amine]
- Ki [1]: 0.5 to 1 µM
- Ki [2]: 0.1 to 0.5 µM

SMILES: CCOc1ccc(-n2nc3c(N(C)CCCc4ccccc4O)nnc(C)c3c2C)c(F)c1 [Example 21, 2-(3-((2-(4-ethoxy-2-fluorophenyl)-3,4-dimethyl-2H-pyrazolo[3,4-d]pyridazin-7-yl)(methyl)amino)propyl)phenol]
- Ki [1]: 0.5 to 1 µM
- Ki [2]: ≥ 5 µM

SMILES: CCOc1ccc(-n2nc3c(N(C)Cc4ccccc4O)nnc(C)c3c2C)c(F)c1 [Example 23, 2-(((2-(4-ethoxy-2-fluorophenyl)-3,4-dimethyl-2H-pyrazolo[3,4-d]pyridazin-7-yl)(methyl)amino)methyl)phenol]
- Ki [1]: 0.5 to 1 µM
- Ki [2]: 0.1 to 0.5 µM

SMILES: CCOc1ccc(-n2nc3c(N(C)Cc4ccccc4CNC)nnc(C)c3c2C)c(F)c1 [Example 43, 2-(4-ethoxy-2-fluorophenyl)-N,3,4-trimethyl-N-(2-((methylamino)methyl)benzyl)-2H-pyrazolo[3,4-d]pyridazin-7-amine]
- Ki [1]: 0.1 to 0.5 µM
- Ki [2]: 0.5 to 5 µM

SMILES: CCOc1ccc(-n2nc3c(N(C)Cc4cc(OC)ccn4)nnc(C)c3c2C)c(F)c1 [Example 31, 2-(4-ethoxy-2-fluorophenyl)-N-((4-methoxypyridin-2-yl)methyl)-N,3,4-trimethyl-2H-pyrazolo[3,4-d]pyridazin-7-amine]
- Ki [1]: > 1 µM
- Ki [2]: 0.1 to 0.5 µM

SMILES: CCOc1ccc(-n2nc3c(N(C)CC(O)c4ccccc4)nnc(C)c3c2C)c(F)c1 (centres unmarked) [Example 5, 2-((2-(4-ethoxy-2-fluorophenyl)-3,4-dimethyl-2H-pyrazolo[3,4-d]pyridazin-7-yl)(methyl)amino)-1-phenylethanol]
- Ki [1]: > 1 µM
- Ki [2]: 0.1 to 0.5 µM
